Results as given in US7250433B2, “Tetrazole and oxadiazolone substituted β-amino acid derivatives” (Warner Lambert Company LLC, priority 2003, dated 2007).

| Structure (SMILES) | melting point |
| --- | --- |
| CC(C)C(C)C(CN)c1nnn[nH]1 (stereo not drawn) | > 250 °C (dec.) |
| CC(CCc1ccccc1)C(CN)c1nnn[nH]1 (stereo not drawn) | 152 °C (dec.) |
| CC(C)C1CC1(CN)C(=O)O.Cl (stereo not drawn) | 245 to 246 °C |
| Cl.NCC1(c2noc(=O)[nH]2)CC12CCCC2 (stereo not drawn) | 206 to 208 °C |
| NCC1(C(=O)O)CC12CCCC2 (stereo not drawn) | 231 to 235 °C (dec.) |
| CC(C)CC1CC1(CN)C(=O)O.Cl (stereo not drawn) | 254 to 255 °C |
| CC(Cc1ccc(F)cc1)C(CN)c1nnn[nH]1 (stereo not drawn) [Example 26, 4-(4-Fluoro-phenyl)-3-methyl-2-(1H-tetrazol-5-yl)-butylamine] | 186 °C (dec.) |
| CC(CC1CCCC1)C(CN)c1nnn[nH]1 (stereo not drawn) | 194 °C (dec.) |
| CC(C)CC1CC1(CN)c1noc(=O)[nH]1.Cl (stereo not drawn) | 181 to 182 °C |
| Cl.NCC1(c2noc(=O)[nH]2)CC12CCCCC2 (stereo not drawn) | 179 to 181 °C (dec.) |
| CC(Cc1cccc(C(F)(F)F)c1)C(CN)c1nnn[nH]1 (stereo not drawn) | 163 °C (dec.) |
| NCC(CC1CCCCC1)c1nnn[nH]1 (stereo not drawn) | > 250 °C (dec.) |
| CC(C)C1CC1(CN)c1noc(=O)[nH]1.Cl (stereo not drawn) | 178 to 179 °C |
| CC(C)C1CC1(CN)c1nnn[nH]1 (stereo not drawn) | > 250 °C (dec.) |
| CCC(CC)C1CC1(CN)c1nnn[nH]1 (stereo not drawn) | > 250 °C (dec.) |
| CC(C)CCC[C@@H](C)CCC(CN)c1nnn[nH]1 (stereo partly drawn) | 185 °C (dec.) |
| CC(CC1CCCCC1)C(CN)c1nnn[nH]1 (stereo not drawn) | 216 °C (dec.) |
| CCC(C(C)C)C(CN)c1nnn[nH]1 (stereo not drawn) | 205 °C (dec.) |
